Assay results as given in the CheMixHub viscosity set.

Test: xn = mol fraction of the nth substance listed

c1ccccc1 + CC(C)O
viscosity [mPa·s], 101 kPa
Details | x1 = 0.0575 | x1 = 0.144 | x1 = 0.225 | x1 = 0.362 | x1 = 0.558 | x1 = 0.651 | x1 = 0.732 | x1 = 0.798 | x1 = 0.886
298.15 K | 1.733 | 1.369 | 1.139 | 0.89 | 0.69 | 0.639 | 0.614 | 0.607 | 0.602
303.15 K | 1.512 | 1.206 | 1.015 | 0.8 | 0.643 | 0.593 | 0.572 | 0.565 | 0.561
308.15 K | 1.325 | 1.068 | 0.905 | 0.73 | 0.592 | 0.551 | 0.531 | 0.527 | 0.524
313.15 K | 1.16 | 0.948 | 0.814 | 0.668 | 0.556 | 0.511 | 0.497 | 0.493 | 0.493
318.15 K | 1.026 | 0.852 | 0.732 | 0.616 | 0.518 | 0.475 | 0.465 | 0.463 | 0.461

CN(C)C=O + Cc1ccccc1
Details | viscosity [mPa·s]
293.15 K, 101 kPa, x1 = 0.0501 | 0.592
293.15 K, 101 kPa, x1 = 0.1001 | 0.607
293.15 K, 101 kPa, x1 = 0.22 | 0.641
293.15 K, 101 kPa, x1 = 0.3122 | 0.668
293.15 K, 101 kPa, x1 = 0.4002 | 0.693
293.15 K, 101 kPa, x1 = 0.5002 | 0.721
293.15 K, 101 kPa, x1 = 0.6111 | 0.751
293.15 K, 101 kPa, x1 = 0.7003 | 0.775
293.15 K, 101 kPa, x1 = 0.8122 | 0.805
293.15 K, 101 kPa, x1 = 0.9002 | 0.828
298.15 K, 101.3 kPa, x1 = 0.1224 | 0.584
298.15 K, 101.3 kPa, x1 = 0.2414 | 0.612
298.15 K, 101.3 kPa, x1 = 0.3485 | 0.639
298.15 K, 101.3 kPa, x1 = 0.4031 | 0.654
298.15 K, 101.3 kPa, x1 = 0.5545 | 0.699
298.15 K, 101.3 kPa, x1 = 0.657 | 0.723
298.15 K, 101.3 kPa, x1 = 0.7413 | 0.742
298.15 K, 101.3 kPa, x1 = 0.8336 | 0.764
298.15 K, 101.3 kPa, x1 = 0.9129 | 0.781
303.15 K, 101.3 kPa, x1 = 0.1224 | 0.55
303.15 K, 101.3 kPa, x1 = 0.2414 | 0.576
303.15 K, 101.3 kPa, x1 = 0.3485 | 0.601
303.15 K, 101.3 kPa, x1 = 0.4031 | 0.615
303.15 K, 101.3 kPa, x1 = 0.5545 | 0.657
303.15 K, 101.3 kPa, x1 = 0.657 | 0.68
303.15 K, 101.3 kPa, x1 = 0.7413 | 0.698
303.15 K, 101.3 kPa, x1 = 0.8336 | 0.718
303.15 K, 101.3 kPa, x1 = 0.9129 | 0.735
303.15 K, 101.33 kPa, x1 = 0.1037 | 0.542
303.15 K, 101.33 kPa, x1 = 0.1731 | 0.556
303.15 K, 101.33 kPa, x1 = 0.2947 | 0.581
303.15 K, 101.33 kPa, x1 = 0.3985 | 0.602
303.15 K, 101.33 kPa, x1 = 0.4729 | 0.618
303.15 K, 101.33 kPa, x1 = 0.6004 | 0.645
303.15 K, 101.33 kPa, x1 = 0.7147 | 0.67
303.15 K, 101.33 kPa, x1 = 0.7974 | 0.688
303.15 K, 101.33 kPa, x1 = 0.8981 | 0.712
308.15 K, 101.3 kPa, x1 = 0.1224 | 0.518
308.15 K, 101.3 kPa, x1 = 0.2414 | 0.541
308.15 K, 101.3 kPa, x1 = 0.3485 | 0.565
308.15 K, 101.3 kPa, x1 = 0.4031 | 0.578
308.15 K, 101.3 kPa, x1 = 0.5545 | 0.617
308.15 K, 101.3 kPa, x1 = 0.657 | 0.638
308.15 K, 101.3 kPa, x1 = 0.7413 | 0.655
308.15 K, 101.3 kPa, x1 = 0.8336 | 0.674
308.15 K, 101.3 kPa, x1 = 0.9129 | 0.69
313.15 K, 101.3 kPa, x1 = 0.1224 | 0.49
313.15 K, 101.3 kPa, x1 = 0.2414 | 0.512
313.15 K, 101.3 kPa, x1 = 0.3485 | 0.534
313.15 K, 101.3 kPa, x1 = 0.4031 | 0.547
313.15 K, 101.3 kPa, x1 = 0.5545 | 0.584
313.15 K, 101.3 kPa, x1 = 0.657 | 0.604
313.15 K, 101.3 kPa, x1 = 0.7413 | 0.619
313.15 K, 101.3 kPa, x1 = 0.8336 | 0.638
313.15 K, 101.3 kPa, x1 = 0.9129 | 0.653
313.15 K, 101.33 kPa, x1 = 0.1037 | 0.491
313.15 K, 101.33 kPa, x1 = 0.1731 | 0.505
313.15 K, 101.33 kPa, x1 = 0.2947 | 0.522
313.15 K, 101.33 kPa, x1 = 0.3985 | 0.543
313.15 K, 101.33 kPa, x1 = 0.4729 | 0.56
313.15 K, 101.33 kPa, x1 = 0.6004 | 0.583
313.15 K, 101.33 kPa, x1 = 0.7147 | 0.604
313.15 K, 101.33 kPa, x1 = 0.7974 | 0.622
313.15 K, 101.33 kPa, x1 = 0.8981 | 0.643

O=[N+]([O-])c1ccccc1 + COC(C)=O
viscosity [mPa·s], 101 kPa
Details | 298.15 K | 308.15 K
x2 = 0.0418 | 1.689 | 1.459
x2 = 0.1491 | 1.449 | 1.261
x2 = 0.2508 | 1.25 | 1.095
x2 = 0.3515 | 1.076 | 0.949
x2 = 0.4403 | 0.941 | 0.834
x2 = 0.4882 | 0.875 | 0.777
x2 = 0.5492 | 0.796 | 0.71
x2 = 0.649 | 0.681 | 0.611
x2 = 0.7499 | 0.58 | 0.523
x2 = 0.8513 | 0.492 | 0.446
x2 = 0.9379 | 0.426 | 0.388

C=C(C)C(=O)O + O=C1CCCCC1
viscosity [mPa·s], 101 kPa
Details | x2 = 0.1 | x2 = 0.2 | x2 = 0.3 | x2 = 0.4 | x2 = 0.5 | x2 = 0.5999 | x2 = 0.7 | x2 = 0.8 | x2 = 0.9
298.15 K | 1.369 | 1.528 | 1.659 | 1.809 | 1.901 | 1.949 | 1.999 | 2.045 | 2.037
308.15 K | 1.159 | 1.281 | 1.389 | 1.508 | 1.583 | 1.616 | 1.651 | 1.683 | 1.684
318.15 K | 0.999 | 1.101 | 1.183 | 1.275 | 1.33 | 1.359 | 1.395 | 1.424 | 1.422

COCC(C)O (stereo not drawn) + CC(=O)CC(C)C
298.15 K, 101 kPa
Details | viscosity [mPa·s]
x2 = 0.1057 | 1.373
x2 = 0.2037 | 1.167
x2 = 0.3075 | 1.006
x2 = 0.4185 | 0.875
x2 = 0.5295 | 0.774
x2 = 0.6413 | 0.696
x2 = 0.7612 | 0.63
x2 = 0.8745 | 0.582

O=[N+]([O-])c1ccccc1 + COC(C)(C)C
viscosity [mPa·s], 101.33 kPa
Details | x2 = 0.0921 | x2 = 0.1852 | x2 = 0.2942 | x2 = 0.3906 | x2 = 0.4845 | x2 = 0.695 | x2 = 0.7094 | x2 = 0.8055 | x2 = 0.9053
293.15 K | 1.745 | 1.535 | 1.345 | 1.096 | 1.011 | 0.7813 | 0.659 | 0.5509 | 0.4676
298.15 K | 1.625 | 1.402 | 1.203 | 0.9995 | 0.8725 | – | 0.6043 | 0.507 | 0.4335

ClC(Cl)=C(Cl)Cl + C1CCOC1
303.15 K, 101 kPa
Details | viscosity [mPa·s]
x2 = 0.0667 | 0.7821
x2 = 0.1429 | 0.763
x2 = 0.2457 | 0.7362
x2 = 0.3692 | 0.7008
x2 = 0.4384 | 0.6795
x2 = 0.5309 | 0.6487
x2 = 0.6897 | 0.5914
x2 = 0.7605 | 0.5641
x2 = 0.8435 | 0.5312
x2 = 0.9213 | 0.4988
